Laboratory results: patent US20260265246A1 (ICAHN SCHOOL OF MEDICINE AT MOUNT SINAI, priority 2021, published 2026)
Where two headings read alike, the source gives them in different places.

Tests used:
5HT2A receptor [1] = target: T1, 5HT2A receptor (Homo sapiens, UniProt P28223); test: biochemical; format: binding; set-up: expressed in transfected cells; crude membranes
5HT2A receptor [2] = target: T1, 5HT2A receptor; test: cell-based; set-up: expressed in transfected cells; host or cells: HEK293T cells, transient co-transfection; details: HEK-293T, BRET2 Gαq dissociation, HEK293T cells, normalized to 5-HT; read-out: 5HT2A Gq Emax (%)
5HT2A receptor [3] = target: T1, 5HT2A receptor; test: cell-based; set-up: expressed in transfected cells; host or cells: HEK293T cells, transient co-transfection; details: HEK-293T, BRET1 beta-arrestin2 recruitment, HEK293T cells, normalized to 5-HT; read-out: 5HT2A β-Arr Emax (%)
[4] = 5HT2A Ki (nM), secondary radioligand binding, Ki from IC50 by Cheng-Prusoff
[5] = 5HT2A Ki (nM), secondary binding assay, Cheng-Prusoff

T1 sequence (P28223 whole entry): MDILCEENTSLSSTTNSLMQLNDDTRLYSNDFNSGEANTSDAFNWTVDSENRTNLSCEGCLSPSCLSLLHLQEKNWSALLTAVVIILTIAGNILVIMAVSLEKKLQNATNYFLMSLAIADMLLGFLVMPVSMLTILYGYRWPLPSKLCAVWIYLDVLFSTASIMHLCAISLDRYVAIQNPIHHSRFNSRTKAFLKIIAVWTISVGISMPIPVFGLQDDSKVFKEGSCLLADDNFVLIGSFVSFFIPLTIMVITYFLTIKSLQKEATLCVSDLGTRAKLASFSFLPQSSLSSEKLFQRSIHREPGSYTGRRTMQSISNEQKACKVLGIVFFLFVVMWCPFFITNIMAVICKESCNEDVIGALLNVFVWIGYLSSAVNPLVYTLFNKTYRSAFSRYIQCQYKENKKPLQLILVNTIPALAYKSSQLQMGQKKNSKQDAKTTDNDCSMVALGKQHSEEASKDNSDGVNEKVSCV

Row | Structure (SMILES) | Ki (5HT2A receptor [1]; [4]) [nM] | further results
1 | Cc1cnc2[nH]cc(C3=CCCNC3)c2c1 [Example 1, 5-methyl-3-(1,2,5,6-tetrahydropyridin-3-yl)-1H-pyrrolo[2,3-b]pyridine] | 1720 | 
2 | Cc1cnc2[nH]cc(C3=CCCN(C)C3)c2c1 [Example 5, 5-methyl-3-(1-methyl-1,2,5,6-tetrahydropyridin-3-yl)-1H-pyrrolo[2,3-b]pyridine] | 717 | 
3 | C1=C(c2c[nH]c3nccc(-c4ccccc4)c23)CNCC1 [Example 12, 4-phenyl-3-(1,2,5,6-tetrahydropyridin-3-yl)-1H-pyrrolo[2,3-b]pyridine] | 191 | 
4 | CC(C)c1ccc2[nH]cc(C3=CCCN(C)C3)c2c1 [Example 24, 5-isopropyl-3-(1-methyl-1,2,5,6-tetrahydropyridin-3-yl)-1H-indole] | 105 | 
5 | C1=C(c2c[nH]c3ccc(-c4ccccc4)cc23)CNCC1 [Example 27, 5-phenyl-3-(1,2,5,6-tetrahydropyridin-3-yl)-1H-indole] | 1480 | 
6 | CN1CCC=C(c2c[nH]c3ccc(-c4ccccc4)cc23)C1 [Example 28, 3-(1-methyl-1,2,5,6-tetrahydropyridin-3-yl)-5-phenyl-1H-indole] | 498 | 
7 | Cc1ccc2c(C3=CCCNC3)c[nH]c2c1 [Example 29, 6-methyl-3-(1,2,5,6-tetrahydropyridin-3-yl)-1H-indole] | 1200 | 
8 | Cc1ccc2c(C3=CCCN(C)C3)c[nH]c2c1 [Example 30, 6-methyl-3-(1-methyl-1,2,5,6-tetrahydropyridin-3-yl)-1H-indole] | 647 | 
9 | CC(C)c1ccc2c(C3=CCCNC3)c[nH]c2c1 [Example 33, 6-isopropyl-3-(1,2,5,6-tetrahydropyridin-3-yl)-1H-indole] | 1260 | 
10 | CC(C)c1ccc2c(C3=CCCN(C)C3)c[nH]c2c1 [Example 34, 6-isopropyl-3-(1-methyl-1,2,5,6-tetrahydropyridin-3-yl)-1H-indole] | 486 | 
11 | COc1ccc2c(C3=CCCNC3)c[nH]c2c1 [Example 35, 6-methoxy-3-(1,2,5,6-tetrahydropyridin-3-yl)-1H-indole] | > 10000 | 
12 | COc1ccc2c(C3=CCCN(C)C3)c[nH]c2c1 [Example 36, 6-methoxy-3-(1-methyl-1,2,5,6-tetrahydropyridin-3-yl)-1H-indole] | 8500 | 
13 | CC(C)(C)c1ccc2c(C3=CCCNC3)c[nH]c2c1 [Example 37, 6-(tert-butyl)-3-(1,2,5,6-tetrahydropyridin-3-yl)-1H-indole] | 9910 | 
14 | CN1CCC=C(c2c[nH]c3cc(C(C)(C)C)ccc23)C1 [Example 38, 6-(tert-butyl)-3-(1-methyl-1,2,5,6-tetrahydropyridin-3-yl)-1H-indole] | 7880 | 
15 | C1=C(c2c[nH]c3cc(-c4ccccc4)ccc23)CNCC1 [Example 39, 6-phenyl-3-(1,2,5,6-tetrahydropyridin-3-yl)-1H-indole] | 6760 | 
16 | CN1CCC=C(c2c[nH]c3cc(-c4ccccc4)ccc23)C1 [Example 40, 3-(1-methyl-1,2,5,6-tetrahydropyridin-3-yl)-6-phenyl-1H-indole] | 1330 | 
17 | CN1CCC=C(c2cn(C)c3ncccc23)C1 [Example 48, 1-methyl-3-(1-methyl-1,2,5,6-tetrahydropyridin-3-yl)-1H-pyrrolo[2,3-b]pyridine] | 423 | 
18 | CCN(CC)C(=O)NC1C=C(c2c[nH]c3ncccc23)CNC1 (stereo not drawn) [Example 49, 3-(5-(1H-pyrrolo[2,3-b]pyridin-3-yl)-1,2,3,6-tetrahydropyridin-3-yl)-1,1-diethylurea] | 5580 | 
19 | COc1cccc2c(C3=CCCNC3)c[nH]c12 [Example 51, 7-methoxy-3-(1,2,5,6-tetrahydropyridin-3-yl)-1H-indole] | > 10000 | 

Row | Structure (SMILES) | Ki (5HT2A receptor [1]; [4]) [nM] | further results
20 | CC(C)c1cccc2c(C3=CCCN(C)C3)c[nH]c12 [Example 54, 7-isopropyl-3-(1-methyl-1,2,5,6-tetrahydropyridin-3-yl)-1H-indole] | 510 | 
21 | CN1CCC=C(c2c[nH]c3c(C(C)(C)C)cccc23)C1 [Example 55, 7-(tert-butyl)-3-(1-methyl-1,2,5,6-tetrahydropyridin-3-yl)-1H-indole] | 374 | 
22 | CN1CCC=C(c2c[nH]c3c(C(=O)O)cccc23)C1 [Example 57, 3-(1-methyl-1,2,5,6-tetrahydropyridin-3-yl)-1H-indole-7-carboxylic acid] | > 10000 | 
23 | CN1CCC=C(c2c[nH]c3c(CO)cccc23)C1 [Example 58, (3-(1-methyl-1,2,5,6-tetrahydropyridin-3-yl)-1H-indol-7-yl)methanol] | > 10000 | 
24 | CC(C)c1cccc2c(C3=CCCN(Cc4ccccc4)C3)c[nH]c12 [Example 70, 3-(1-benzyl-1,2,5,6-tetrahydropyridin-3-yl)-7-(propan-2-yl)-1H-indole] | 2050 | 
25 | CC(C)(C)c1cccc2c(C3=CCCN(Cc4ccccc4)C3)c[nH]c12 [Example 72, 3-(1-benzyl-1,2,5,6-tetrahydropyridin-3-yl)-7-tert-butyl-1H-indole] | 734 | 
26 | O=C(O)c1cccc2c(C3=CCCN(Cc4ccccc4)C3)c[nH]c12 [Example 74, 3-(1-benzyl-1,2,5,6-tetrahydropyridin-3-yl)-1H-indole-7-carboxylic acid] | > 10000 | 
27 | OCc1cccc2c(C3=CCCN(Cc4ccccc4)C3)c[nH]c12 [Example 75, (3-(1-benzyl-1,2,5,6-tetrahydropyridin-3-yl)-1H-indol-7-yl)methanol] | > 10000 | 
28 | COc1ccc2[nH]nc(C3=CCCNC3)c2c1 [Example 87, 5-methoxy-3-(1,2,5,6-tetrahydropyridin-3-yl)-1H-indazole] |  | Emax (5HT2A receptor [2]): 84.2%; Emax (5HT2A receptor [3]): 80%
29 | COc1cccc2c(C3=CCCNC3)n[nH]c12 [Example 92, 7-methoxy-3-(1,2,5,6-tetrahydropyridin-3-yl)-1H-indazole] | 1090 | 
30 | Cc1ccc2c(C3=CCCN(C)C3)n[nH]c2c1 [Example 93, 6-methyl-3-(1-methyl-1,2,5,6-tetrahydropyridin-3-yl)-1H-indazole] | 2920 | 
31 | CN1CCC=C(c2n[nH]c3cc(C#N)ccc23)C1 [Example 96, 3-(1-methyl-1,2,5,6-tetrahydropyridin-3-yl)-1H-indazole-6-carbonitrile] | 5470 | 
32 | COc1cccc2c(C3=CCCN(C)C3)n[nH]c12 [Example 109, 7-methoxy-3-(1-methyl-1,2,5,6-tetrahydropyridin-3-yl)-1H-indazole] | > 10000 | 
33 | Clc1cccn2c(C3=CCCNC3)cnc12 [Example 110, 8-chloro-3-(1,2,5,6-tetrahydropyridin-3-yl)imidazo[1,2-a]pyridine] | > 10000 | 
34 | Fc1cccn2c(C3=CCCNC3)cnc12 [Example 111, 8-fluoro-3-(1,2,5,6-tetrahydropyridin-3-yl)imidazo[1,2-a]pyridine] | > 10000 | 
35 | Cc1cccn2c(C3=CCCNC3)cnc12 [Example 112, 8-methyl-3-(1,2,5,6-tetrahydropyridin-3-yl)imidazo[1,2-a]pyridine] | 9040 | 
36 | C1=C(c2c[nH]c3cnccc23)CNCC1 [Example 142, 3-(1,2,5,6-tetrahydropyridin-3-yl)-1H-pyrrolo[2,3-c]pyridine] |  | Ki (5HT2A receptor [1]; secondary binding assay, Cheng-Prusoff, read-out: 5HT2A Ki): 152 nM
37 | CCCN1CCC=C(c2c[nH]c3cnccc23)C1 [Example 143, 3-(1-propyl-1,2,5,6-tetrahydropyridin-3-yl)-1H-pyrrolo[2,3-c]pyridine] |  | Ki (5HT2A receptor [1]; [5]): 9760 nM
38 | NC1CCC=C(c2n[nH]c3c(Cl)cccc23)C1 (stereo not drawn) [Example 169, 3-(7-chloro-1H-indazol-3-yl)cyclohex-3-en-1-amine] |  | Ki (5HT2A receptor [1]; [5]): > 10000 nM
